In patent US8808702B2, “Sulfide, sulfoxide and sulfone chalcone analogues, derivatives thereof and therapeutic uses thereof” (Temple University-of the Commonwealth System of Higher …, priority 2006, dated 2014):
pIC50: −log10 of the molar value. Where two headings read alike, the source gives them in different places.

Assays:
[1] = system: K562 (chronic myelogenous leukaemia); experiment: Effect of compounds on tumor cell lines (assay of Latham et al.), K562; type: cell-based; details: K562 cells, read-out: K 562 potency (IC50)
Description: (§1) The effect of the compounds of the invention on tumor cells was determined by the assay described by Latham et al., Oncogene 12:827-837 (1996). Tumor cells K562 (chronic myelogenous leukaemia) or DU145 (prostate cancer) were plated in 12-well dishes at a cell density of 2.5×10^4 cells well. The plated cells were treated 24 hours later with a compound of the invention dissolved in DMSO at multiple concentrations ranging from 1 μM to 100 μM. The plates were examined 96 hours later under an inverted microscope, Olympus CK-2 using an 10× objective, and compound activity was noted by physical observation. When necessary, the total number of viable cells was determined by trypsinizing the wells and counting the number of viable cells, as determined by trypan blue exclusion, using a hemacytometer.
(§2) The representative compounds listed in Tables 1-5 are shown by way of illustration, and are not intended to limit the scope of the invention. The compounds are prepared and tested by methods based on those described above, except that the compound of Table 5 was dissolved in DMSO at multiple concentrations ranging from 0.1 μM to 100 μM

DU145 (prostate cancer) = experiment: Effect of compounds on tumor cell lines (assay of Latham et al.), DU145; type: cell-based; details: DU145 cells, read-out: DU 145 potency (IC50)
Description: as §1, §2

[2] = 96 hours after treatment, 1 μM to 100 μM
[3] = Table 1, examined 96 hours after treatment, 1 μM to 100 μM in DMSO

Row | pIC50 [1, 2] | pIC50 (DU145 (prostate cancer); [2]) | SMILES | pIC50 [1, 3] | pIC50 (DU145 (prostate cancer); [3]) | further results
1 | ≥ 6.00 | 5.00 to 6.00 | O=C(C(=Cc1ccc(N2CCN(CCO)CC2)c([N+](=O)[O-])c1)SCc1ccc(F)cc1)c1ccc(F)cc1 [Example 330] | – | – | –
2 | 5.00 to 6.00 | 5.00 to 6.00 | Cc1ccc(CSC(=Cc2c[nH]c3ccc(Cl)cc23)C(=O)c2ccc(Cl)cc2)cc1 [Example 296] | – | – | –
3 | 5.00 to 6.00 | 4.60 to 5.00 | CN(C)c1ccc(C=C(SCc2ccc(Cl)cc2)C(=O)c2ccc(Br)cc2)cc1 [Example 208] | – | – | –
4 | 5.00 to 6.00 | 5.00 to 6.00 | Cc1ccc(S(=O)(=O)Oc2ccc(C(=O)/C(=C\c3ccc(F)c([N+](=O)[O-])c3)SCc3ccc(F)cc3)cc2)cc1 [Example 336] | – | – | –
5 | 5.00 to 6.00 | 5.00 to 6.00 | O=C(C(=Cc1ccc(Br)cc1)SCc1ccc(Cl)cc1)c1ccc(Br)cc1 [Example 214] | – | – | –
6 | 5.00 to 6.00 | 4.60 to 5.00 | O=C(C(=Cc1ccc(Br)cc1)SCc1ccc(F)cc1)c1ccc(Cl)cc1 [Example 254] | – | – | –
7 | 5.00 to 6.00 | 5.00 to 6.00 | O=C(O)c1ccc(C(=O)C(=Cc2ccc(F)c([N+](=O)[O-])c2)SCc2ccccc2Cl)cc1 [Example 303] | – | – | –
8 | 5.00 to 6.00 | 5.00 to 6.00 | COc1cc(OC)c(C=C(SCc2ccc(F)cc2)C(=O)c2ccc(Br)cc2)c(OC)c1 [Example 233] | – | – | –
9 | ≥ 6.00 | 5.00 to 6.00 | O=C(O)c1ccc(C(=O)C(=Cc2ccc(Br)c([N+](=O)[O-])c2)SCc2ccc(Cl)cc2Cl)cc1 [Example 299] | – | – | –
10 | 4.60 to 5.00 | 4.60 to 5.00 | O=C(C(=Cc1ccc(O)c([N+](=O)[O-])c1)SCc1ccc(Cl)cc1)c1ccc(Cl)cc1 [Example 220] | – | – | –
11 | ≥ 6.00 | 5.00 to 6.00 | Cc1ccc(CS/C(=C/c2ccc(F)c([N+](=O)[O-])c2)C(=O)c2ccc(Cl)c([N+](=O)[O-])c2)cc1 [Example 349] | – | – | –

Second part, the molecule before the results:

Row | SMILES | pIC50 [1, 2] | pIC50 (DU145 (prostate cancer); [2]) | pIC50 [1, 3] | pIC50 (DU145 (prostate cancer); [3]) | further results
12 | CSc1ccc(/C=C(\C(=O)c2ccc(Br)cc2)S(=O)(=O)Cc2ccc(C)cc2)cc1 [Example 436] | – | – | – | – | pIC50 ([1]; Homo sapiens, Table 4, examined 96 hours after treatment, 1 μM to 100 μM in DMSO): 4.60 to 5.00; pIC50 (DU145 (prostate cancer); Homo sapiens, DU-145, Table 4, examined 96 hours after treatment, 1 μM to 100 μM in DMSO): 4.60 to 5.00
13 | O=C(C(=Cc1ccc([N+](=O)[O-])c(O)c1)Sc1c(F)c(F)c(F)c(F)c1F)c1ccc(Br)cc1 [Example 1] | – | – | 5.00 to 6.00 | 4.60 to 5.00 | –
14 | O=C(C(=Cc1ccc([N+](=O)[O-])c(O)c1)SCc1ccc(Br)cc1)c1ccc([N+](=O)[O-])c(Cl)c1 [Example 154] | 5.00 to 6.00 | 5.00 to 6.00 | – | – | –
15 | Cc1ccc(SC(=Cc2ccc(Cl)cc2)C(=O)c2ccc(Cl)cc2)cc1 [Example 91] | – | – | 5.00 to 6.00 | 4.30 to 4.60 | –
16 | Cc1ccc(SC(=Cc2c(O)cc(O)cc2O)C(=O)c2ccc(Cl)cc2)cc1 [Example 68] | – | – | < 4.00 | < 4.00 | –
17 | O=C(O)c1cc(C=C(Sc2ccc(Br)cc2)C(=O)c2c(F)c(F)c(F)c(F)c2F)ccc1O [Example 28] | – | – | 4.30 to 4.60 | 4.30 to 4.60 | –
18 | O=C(C(=Cc1ccc(O)cc1O)SCc1ccc(Cl)cc1)c1ccc(Cl)cc1 [Example 196] | 4.00 to 4.30 | 4.00 to 4.30 | – | – | –
19 | O=C(C(=Cc1ccc(Br)c(O)c1)Sc1ccc(Br)cc1)c1ccc(Br)cc1 [Example 32] | – | – | 5.00 to 6.00 | 5.00 to 6.00 | –
20 | COc1cc(C(=O)/C(=C\c2ccc(O)c([N+](=O)[O-])c2)SCc2ccc(Br)cc2)cc(OC)c1OC [Example 178] | 5.00 to 6.00 | 5.00 to 6.00 | – | – | –
21 | CSc1ccc(/C=C(/SCc2ccc(Br)cc2)C(=O)c2ccc(C(=O)O)cc2)cc1 [Example 188] | 4.30 to 4.60 | 4.30 to 4.60 | – | – | –
22 | Cc1ccc(SC(=Cc2ccc[nH]2)C(=O)c2ccc(Cl)cc2)cc1 [Example 76] | – | – | 4.60 to 5.00 | 4.60 to 5.00 | –
23 | O=C(/C(=C\c1cccc(Cl)c1Cl)SCc1ccc(Cl)cc1)c1ccc(Br)cc1 [Example 190] | 4.60 to 5.00 | 4.60 to 5.00 | – | – | –
24 | Cc1cc(C)cc(C=C(Sc2ccc(Br)cc2)C(=O)c2ccc(Cl)cc2)c1 [Example 26] | – | – | 5.00 to 6.00 | 4.60 to 5.00 | –
25 | O=C(/C(=C\c1ccc([N+](=O)[O-])c(O)c1)SCc1ccc(Br)cc1)c1ccc(C(F)(F)F)cc1 [Example 160] | 5.00 to 6.00 | 5.00 to 6.00 | – | – | –
26 | O=C(C(=Cc1ccc(OC(F)(F)F)cc1)Sc1ccc(Br)cc1)c1ccc(Br)cc1 [Example 51] | – | – | 5.00 to 6.00 | 5.00 to 6.00 | –
